Measurements from US6844336B2, “4-fluoroalkyl-2h-benzopyrans with anti-estogenic activity” (Schering AG, priority 2000, dated 2005).

System: density of the trabecular bone in the proximal tibia of ovariectomized rats
Test: Bone studies in ovariectomized rats (bone density of proximal tibia by pQCT)
Parameters: species or system rat
Settings: three-month-old ovariectomized female rats, once daily for 28 days, 0.1 mg/kg/animal/day p.o., pQCT ex vivo
Description: Three-month-old female rats are ovariectomized and treated once daily with the test compound immediately after the operation for 28 days. The administration is carried out subcutaneously in arachis oil/ethanol or it is carried out perorally. The animals are sacrificed on the day after the last administration, and tibiae as well as uteri are removed. The uteri are weighed, fixed and worked up for histological studies. The determination of the bone density is carried out ex vivo on prepared long bones using pQCT (quantitative computer tomography). The measurements are performed at a distance of 4-6 mm from the ball of the joint of the proximal tibia.
By the ovariectomy, the density of the trabecular bone in the measured area is reduced by about 400 mg of Ca^2+/cm^3 to about 300 mg of Ca^2+/cm^3. By the treatment with a compound of general formula I according to this invention (dosage of 0.1 mg/kg/animal/day p.o.), the degradation of the bone density in the proximal tibia is prevented or inhibited.

In the case of `Oc1ccc(C2=C(C(F)(F)F)c3ccc(O)cc3OC2c2ccc(OCCN3CCCCC3)cc2)cc1` (single isomer, unassigned; (+)) [Example 1, (+)-7-Hydroxy-3-(4-hydroxyphenyl)-2-[4-(2-piperidin-1-ylethoxy)-penyl]-4(trifluoromethyl)-2H-1-benzopyran], the “bone protection in comparison to the control that was subjected to a sham operation” value is reported as 73%.
